Experimental data: a compilation of properties of binary mixtures (doi:10.1007/s10953-012-9875-7)

Assay: xn = mol fraction of the nth substance listed
Details: 101 kPa

O + CCCC[N+]1(C)CCCC1.N#C[S-]
x1 = 1
Details	viscosity [mPa·s]
298.15 K	0.89
308.15 K	0.74
318.15 K	0.63
328.15 K	0.56
338.15 K	0.5
348.15 K	0.43

O + CCCC[N+]1(C)CCCCC1.N#C[S-]
x1 = 1
Details	viscosity [mPa·s]
328.15 K	0.56
338.15 K	0.5
348.15 K	0.43

O + CCCC[n+]1ccc(C)cc1.N#C[S-]
x1 = 1
Details	viscosity [mPa·s]
298.15 K	0.89
308.15 K	0.74
318.15 K	0.63
328.15 K	0.56
338.15 K	0.5
348.15 K	0.43

O + CCCC[n+]1ccn(C)c1.N#C[S-]
x1 = 1
Details	viscosity [mPa·s]
308.15 K	0.74
318.15 K	0.63
328.15 K	0.56
348.15 K	0.46

CCCC[N+]1(C)CCCC1.N#C[S-] + O
viscosity [mPa·s]
Details	x2 = 0	x2 = 0.0853	x2 = 0.2203	x2 = 0.3555	x2 = 0.5252	x2 = 0.6634	x2 = 0.783	x2 = 0.8623	x2 = 0.9657
298.15 K	109	92	–	49.3	–	17.6	–	–	1.74
308.15 K	70.4	59.4	45.2	33.2	–	–	7.27	–	–
318.15 K	47.8	40.3	–	23.5	14.38	9.15	5.46	–	–
328.15 K	34.1	–	23	17.3	10.87	7.02	–	2.54	0.92
338.15 K	–	21.5	–	13.08	8.49	5.53	–	2.02	–
348.15 K	19.3	16.5	–	10.21	6.81	–	2.65	1.67	–

CCCC[N+]1(C)CCCCC1.N#C[S-] + O
viscosity [mPa·s]
Details	x2 = 0	x2 = 0.2774	x2 = 0.3741	x2 = 0.5111	x2 = 0.6302	x2 = 0.7172	x2 = 0.8248	x2 = 0.9351
318.15 K	265	94.9	–	33	19.13	12.13	6.02	1.97
328.15 K	152	–	–	22.33	–	8.79	4.47	1.57
338.15 K	93.5	–	25.6	15.96	9.94	6.6	3.41	1.28
348.15 K	60.5	27.83	18.51	–	7.6	5.08	2.71	1.07

CCCC[n+]1ccc(C)cc1.N#C[S-] + O
viscosity [mPa·s]
Details	298.15 K	308.15 K	318.15 K	328.15 K	338.15 K	348.15 K
x1 = 0.0076	1.07	0.87	–	0.63	0.57	0.52
x2 = 0	86	51.75	–	23.5	–	12.86
x2 = 0.0564	–	46	30.4	21.3	15.54	11.74
x2 = 0.1655	57.6	36.4	24.6	17.5	–	–
x2 = 0.278	43.1	28	19.3	13.95	10.49	8.18
x2 = 0.3797	31.3	20.9	14.68	10.87	–	6.62
x2 = 0.4628	24.8	16.8	12.14	9.17	–	5.73
x2 = 0.5669	17.8	12.47	9.17	7.02	–	–
x2 = 0.6364	14.06	–	7.48	5.78	4.58	3.69
x2 = 0.7623	8.6	6.3	4.78	3.7	–	2.44
x2 = 0.8333	6.04	4.45	3.37	2.66	2.08	1.62
x2 = 0.9028	3.65	2.74	2.13	–	1.41	1.24
x2 = 0.957	1.98	1.53	1.23	–	0.86	–
x2 = 0.9714	–	–	–	–	–	0.64

CCCC[n+]1ccn(C)c1.N#C[S-] + O
viscosity [mPa·s]
Details	298.15 K	308.15 K	318.15 K	328.15 K	338.15 K	348.15 K
x2 = 0	51.74	34.9	24.2	–	12.73	9.98
x2 = 0.0998	40.2	26.9	19.1	–	10.98	8.73
x2 = 0.2007	–	–	–	12.2	9.53	7.61
x2 = 0.3169	–	18.1	–	10.12	–	6.4
x2 = 0.4346	19.5	13.91	10.4	8.04	6.37	5.14
x2 = 0.5296	15.17	10.96	8.29	6.44	–	–
x2 = 0.6426	10.8	7.95	6.05	–	3.76	3.1
x2 = 0.7201	8.27	6.14	–	–	2.96	2.48
x2 = 0.7949	5.95	4.36	3.33	2.67	–	1.86
x2 = 0.8733	3.75	2.84	2.23	1.82	1.51	1.28
x2 = 0.9444	2.02	1.58	1.27	1.05	0.9	0.78
